Among the data in patent publication US9248199B2, “1:1 adducts of sickle hemoglobin” (Global Blood Therapeutics, Inc., priority 2014, dated 2016) are melting point values, retold here.

On to `CCn1nccc1N(C(=O)COc1cccc(O)c1C=O)C(C)C` [compound 22, N-(1-ethyl-1H-pyrazol-5-yl)-2-(2-formyl-3-hydroxyphenoxy)-N-isopropylacetamide], for which the melting point is 179 to 182 °C.

One may read the melting point as the temperature of the solid-liquid transition.
